Results from US8461305B2, “L-fucose α1→6 specific lectin” (J-Oil Mills, Inc., priority 2008, dated 2013).

Key:
glycoproteins = assay: hemagglutinating inhibition test with glycoproteins (sugar binding specificity); assay type: cell-based
Text: (§1) The sugar binding specificity of lectin also can be confirmed by using erythrocytes that can be specifically agglutinated by the lectin to investigate the sugar type that may inhibit the agglutination of the erythrocytes and the concentration thereof.
(§2) Various monosaccharides, oligosaccharides, and polysaccharides shown in Table 2 and glycoproteins shown in Table 3 were subjected to hemagglutinating inhibition test to evaluate PTL of Example 1 and the SRL of Example 2 with regard to the sugar binding specificity.
(§3) On a 96 well U-bottom microtiter plate, double dilution series of 10 μl of monosaccharide, oligosaccharide, polysaccharide, and glycoprotein solutions were prepared. Then, lectin solution adjusted in advance to have titer 4 was added in an amount of 10 μl to the respective wells. Then, the plate was subjected to a still-standing at a room temperature for one hour for sensitization. Then, 10 μl of 4%-red blood cell suspension was added to the respective wells and the plate was further subjected to a still-standing at a room temperature for one hour. […] The lowest concentration showing the inhibition was assumed as the minimum inhibition concentration. The lower the minimum inhibition concentration is, the higher the specificity to lectin is.
(§4) For comparison, the sugar binding specificity was evaluated using the following commercially-available lectins: Comparison Example 1: AAL (SEIKAGAKU BIOBUSINESS CORPORATION—J-OIL MILLS, Inc.), Comparison Example 2: AOL (TOKYO CHEMICAL INDUSTRY CO., LTD.—Gekkeikan Sake Company, Ltd.), Comparison Example 3: LCA (SEIKAGAKU BIOBUSINESS CORPORATION—J-OIL MILLS, Inc.), and Comparison Example 4: PSA (SEIKAGAKU BIOBUSINESS CORPORATION—J-OIL MILLS, Inc.).

[1] = hemagglutinating inhibition test with sugars (sugar binding specificity); assay type: cell-based
Text: as §1, §2, §3, §4

[2] = inhibitor: Bovine blood serum albumin
[3] = inhibitor: Human immune globulin A
[4] = inhibitor: Human immune globulin G
[5] = inhibitor: α1-acidic glycoprotein
[6] = inhibitor: N-Acetylneuraminic acid
[7] = inhibitor: N-acetylgalactosamine
[8] = inhibitor: N-glycolylneuraminic acid

Substance	minimum inhibition concentration of hemagglutination (glycoproteins; inhibitor: Asialofetuin) [μl/ml]	minimum inhibition concentration of hemagglutination (glycoproteins; inhibitor: Asialomucin (pig)) [μl/ml]	minimum inhibition concentration of hemagglutination (glycoproteins; [2]) [μl/ml]	minimum inhibition concentration of hemagglutination (glycoproteins; inhibitor: Casein) [μl/ml]	minimum inhibition concentration of hemagglutination (glycoproteins; inhibitor: Fetuin) [μl/ml]	minimum inhibition concentration of hemagglutination (glycoproteins; [3]) [μl/ml]	minimum inhibition concentration of hemagglutination (glycoproteins; [4]) [μl/ml]	minimum inhibition concentration of hemagglutination (glycoproteins; inhibitor: Lactoferrin) [μl/ml]	minimum inhibition concentration of hemagglutination (glycoproteins; inhibitor: Mucin (bovine)) [μl/ml]	minimum inhibition concentration of hemagglutination (glycoproteins; inhibitor: Mucin (pig)) [μl/ml]	minimum inhibition concentration of hemagglutination (glycoproteins; inhibitor: Ribonuclease) [μl/ml]	minimum inhibition concentration of hemagglutination (glycoproteins; inhibitor: Thyroglobulin) [μl/ml]	minimum inhibition concentration of hemagglutination (glycoproteins; inhibitor: Transferrin) [μl/ml]	minimum inhibition concentration of hemagglutination (glycoproteins; [5]) [μl/ml]	minimum inhibition concentration of hemagglutination ([1]; inhibitor: Fructose) [mM]	minimum inhibition concentration of hemagglutination ([1]; inhibitor: Galactose) [mM]	minimum inhibition concentration of hemagglutination ([1]; inhibitor: Glucose) [mM]	minimum inhibition concentration of hemagglutination ([1]; inhibitor: L-fucose) [mM]	minimum inhibition concentration of hemagglutination ([1]; inhibitor: Lactose) [mM]	minimum inhibition concentration of hemagglutination ([1]; inhibitor: Maltose) [mM]	further results
Stropharia rugosoannulata lectin [SRL, novel L-fucose α1→6 specific lectin purified from the mushroom Stropharia rugosoannulata]	>250	>250	>250	>250	>250	>250	>250	>250	>250	>250	>250	250	>250	>250	>100	>100	>100	>100	>6	>100	minimum inhibition concentration of hemagglutination ([1]; inhibitor: Mannose): >100 mM; minimum inhibition concentration of hemagglutination ([1]; inhibitor: Melibiose): >100 mM; minimum inhibition concentration of hemagglutination ([1]; inhibitor: Metyl α-mannoside): >100 mM; minimum inhibition concentration of hemagglutination [1, 6]: >100 mM; minimum inhibition concentration of hemagglutination [1, 7]: >100 mM; minimum inhibition concentration of hemagglutination ([1]; inhibitor: N-acetylglucosamine): >100 mM; minimum inhibition concentration of hemagglutination [1, 8]: >100 mM; minimum inhibition concentration of hemagglutination ([1]; inhibitor: Raffinose): >100 mM; minimum inhibition concentration of hemagglutination ([1]; inhibitor: Rhamnose): >100 mM; minimum inhibition concentration of hemagglutination ([1]; inhibitor: Serial lactose): >6 mM; minimum inhibition concentration of hemagglutination ([1]; inhibitor: Sucrose): >100 mM; minimum inhibition concentration of hemagglutination ([1]; inhibitor: Xylose): >100 mM
Aspergillus oryzae lectin [AOL, reference compound]	>250	62.5	>250	>250	>250	>250	>250	>250	>250	62.5	>250	>250	>250	>250	25	>100	>100	0.391	>6	>100	minimum inhibition concentration of hemagglutination ([1]; inhibitor: Mannose): 100 mM; minimum inhibition concentration of hemagglutination ([1]; inhibitor: Melibiose): >100 mM; minimum inhibition concentration of hemagglutination ([1]; inhibitor: Metyl α-mannoside): >100 mM; minimum inhibition concentration of hemagglutination [1, 6]: >100 mM; minimum inhibition concentration of hemagglutination [1, 7]: >100 mM; minimum inhibition concentration of hemagglutination ([1]; inhibitor: N-acetylglucosamine): >100 mM; minimum inhibition concentration of hemagglutination [1, 8]: >100 mM; minimum inhibition concentration of hemagglutination ([1]; inhibitor: Raffinose): >100 mM; minimum inhibition concentration of hemagglutination ([1]; inhibitor: Rhamnose): 100 mM; minimum inhibition concentration of hemagglutination ([1]; inhibitor: Serial lactose): >6 mM; minimum inhibition concentration of hemagglutination ([1]; inhibitor: Sucrose): >100 mM; minimum inhibition concentration of hemagglutination ([1]; inhibitor: Xylose): >100 mM
Pholiota terrestris lectin [PTL, novel L-fucose α1→6 specific lectin purified from the mushroom Pholiota terrestris]	>250	>250	>250	>250	>250	>250	>250	>250	>250	>250	>250	250	>250	>250	>100	>100	>100	>100	>6	>100	minimum inhibition concentration of hemagglutination ([1]; inhibitor: Mannose): >100 mM; minimum inhibition concentration of hemagglutination ([1]; inhibitor: Melibiose): >100 mM; minimum inhibition concentration of hemagglutination ([1]; inhibitor: Metyl α-mannoside): >100 mM; minimum inhibition concentration of hemagglutination [1, 6]: >100 mM; minimum inhibition concentration of hemagglutination [1, 7]: >100 mM; minimum inhibition concentration of hemagglutination ([1]; inhibitor: N-acetylglucosamine): >100 mM; minimum inhibition concentration of hemagglutination [1, 8]: >100 mM; minimum inhibition concentration of hemagglutination ([1]; inhibitor: Raffinose): >100 mM; minimum inhibition concentration of hemagglutination ([1]; inhibitor: Rhamnose): >100 mM; minimum inhibition concentration of hemagglutination ([1]; inhibitor: Serial lactose): >6 mM; minimum inhibition concentration of hemagglutination ([1]; inhibitor: Sucrose): >100 mM; minimum inhibition concentration of hemagglutination ([1]; inhibitor: Xylose): >100 mM
